The record followed here is ChEMBL document CHEMBL5303763, “Data for DCP probe BI-3802” (2023).

Data set [1] deals with Serine/threonine-protein kinase PLK1 (Homo sapiens) (UniProt P53350). The experiment in a line: PLK1 Invitrogen Lab (UK) kinase screen (BI). Conditions: Compound concentration 1.0 uM.
For data set [2], the target named is T1, 5-hydroxytryptamine receptor 3A (Homo sapiens) (UniProt P46098).
T1 sequence (whole entry): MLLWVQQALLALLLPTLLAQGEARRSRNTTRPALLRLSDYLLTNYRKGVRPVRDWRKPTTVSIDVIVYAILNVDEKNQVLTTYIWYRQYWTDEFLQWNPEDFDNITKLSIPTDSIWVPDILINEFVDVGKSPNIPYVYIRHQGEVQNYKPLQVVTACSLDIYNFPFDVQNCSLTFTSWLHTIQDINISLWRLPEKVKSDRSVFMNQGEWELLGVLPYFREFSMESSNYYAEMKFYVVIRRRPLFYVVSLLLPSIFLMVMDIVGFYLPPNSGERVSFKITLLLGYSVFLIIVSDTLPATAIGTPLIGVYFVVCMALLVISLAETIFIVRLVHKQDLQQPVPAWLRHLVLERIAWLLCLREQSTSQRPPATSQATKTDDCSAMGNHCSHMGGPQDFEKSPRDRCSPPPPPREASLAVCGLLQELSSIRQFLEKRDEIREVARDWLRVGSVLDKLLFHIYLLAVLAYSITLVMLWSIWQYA
The experiment in a line: 5HT3/H Eurofins SafetyScreen44 (BI). The following applies: Compound concentration 10.0 uM.

Data set [3] deals with Dual specificity mitogen-activated protein kinase kinase 1 (Homo sapiens) (UniProt Q02750). The experiment in a line: MAP2K1 Invitrogen Lab (UK) kinase screen (BI). Conditions: Compound concentration 1.0 uM.
Data set [4] deals with Histamine H2 receptor (Homo sapiens) (UniProt P25021). The experiment in a line: H2/APT/HS Eurofins SafetyScreen44 (BI). Conditions: filed as antagonist, Compound concentration 10.0 uM.
Sequence of Histamine H2 receptor (Homo sapiens) (P25021 whole entry): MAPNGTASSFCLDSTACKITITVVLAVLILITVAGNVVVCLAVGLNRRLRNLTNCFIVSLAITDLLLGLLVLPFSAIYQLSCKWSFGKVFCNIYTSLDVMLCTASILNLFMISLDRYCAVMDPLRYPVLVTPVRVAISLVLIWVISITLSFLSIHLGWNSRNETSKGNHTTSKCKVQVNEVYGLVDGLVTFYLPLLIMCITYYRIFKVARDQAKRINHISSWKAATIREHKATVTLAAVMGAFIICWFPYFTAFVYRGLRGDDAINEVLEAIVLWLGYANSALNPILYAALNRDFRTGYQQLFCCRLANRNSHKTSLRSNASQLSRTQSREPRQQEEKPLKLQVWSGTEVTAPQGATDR
Data set [5] has as its target Beta-2 adrenergic receptor (Homo sapiens) (UniProt P07550). The experiment in a line: BETA2/HUM Eurofins SafetyScreen44 (BI). Conditions: filed as antagonist, Compound concentration 10.0 uM.
The target in data set [6] is T2, 5-hydroxytryptamine receptor 1A (Homo sapiens) (UniProt P08908).
T2 sequence (whole entry): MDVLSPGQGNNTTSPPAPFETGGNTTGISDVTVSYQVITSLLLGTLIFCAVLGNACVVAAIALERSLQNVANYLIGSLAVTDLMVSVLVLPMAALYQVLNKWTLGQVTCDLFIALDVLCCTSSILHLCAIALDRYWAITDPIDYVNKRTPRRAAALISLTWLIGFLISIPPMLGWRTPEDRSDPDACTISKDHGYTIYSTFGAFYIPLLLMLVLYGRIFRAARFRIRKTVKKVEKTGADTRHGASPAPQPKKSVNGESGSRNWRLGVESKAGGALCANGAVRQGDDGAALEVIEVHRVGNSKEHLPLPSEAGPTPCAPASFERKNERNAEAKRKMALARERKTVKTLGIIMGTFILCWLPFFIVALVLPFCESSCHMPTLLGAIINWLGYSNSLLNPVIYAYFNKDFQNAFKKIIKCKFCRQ
The experiment in a line: 5HT1A/H Eurofins SafetyScreen44 (BI). The following applies: Compound concentration 10.0 uM.

Data set [7] concerns the target Ribosomal protein S6 kinase beta-1 (Homo sapiens) (UniProt P23443). The experiment in a line: RPS6KB1 Invitrogen Lab (UK) kinase screen (BI). Conditions: Compound concentration 1.0 uM.
Data set [8] has as its target Alpha-1D adrenergic receptor (Homo sapiens) (UniProt P25100). The following applies: Compound concentration 10.0 uM.
Data set [9] deals with Beta-3 adrenergic receptor (Homo sapiens) (UniProt P13945). Conditions: Compound concentration 10.0 uM.
Sequence of Beta-3 adrenergic receptor (Homo sapiens) (P13945 whole entry, looked up): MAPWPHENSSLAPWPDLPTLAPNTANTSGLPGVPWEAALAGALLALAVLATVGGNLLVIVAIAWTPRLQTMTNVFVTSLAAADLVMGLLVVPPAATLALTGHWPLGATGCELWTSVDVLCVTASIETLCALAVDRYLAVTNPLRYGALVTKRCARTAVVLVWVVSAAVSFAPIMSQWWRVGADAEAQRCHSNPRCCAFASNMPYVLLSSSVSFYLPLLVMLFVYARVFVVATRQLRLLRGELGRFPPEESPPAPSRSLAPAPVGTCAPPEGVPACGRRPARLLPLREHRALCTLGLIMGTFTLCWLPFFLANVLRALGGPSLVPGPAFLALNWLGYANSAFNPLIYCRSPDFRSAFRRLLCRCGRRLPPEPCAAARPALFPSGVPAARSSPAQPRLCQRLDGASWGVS
In data set [10] the target is Prostaglandin G/H synthase 2 (Homo sapiens) (UniProt P35354). The experiment in a line: COX-2 Eurofins SafetyScreen44 (BI). The following applies: Compound concentration 10.0 uM.
Sequence of Prostaglandin G/H synthase 2 (Homo sapiens) (P35354 whole entry): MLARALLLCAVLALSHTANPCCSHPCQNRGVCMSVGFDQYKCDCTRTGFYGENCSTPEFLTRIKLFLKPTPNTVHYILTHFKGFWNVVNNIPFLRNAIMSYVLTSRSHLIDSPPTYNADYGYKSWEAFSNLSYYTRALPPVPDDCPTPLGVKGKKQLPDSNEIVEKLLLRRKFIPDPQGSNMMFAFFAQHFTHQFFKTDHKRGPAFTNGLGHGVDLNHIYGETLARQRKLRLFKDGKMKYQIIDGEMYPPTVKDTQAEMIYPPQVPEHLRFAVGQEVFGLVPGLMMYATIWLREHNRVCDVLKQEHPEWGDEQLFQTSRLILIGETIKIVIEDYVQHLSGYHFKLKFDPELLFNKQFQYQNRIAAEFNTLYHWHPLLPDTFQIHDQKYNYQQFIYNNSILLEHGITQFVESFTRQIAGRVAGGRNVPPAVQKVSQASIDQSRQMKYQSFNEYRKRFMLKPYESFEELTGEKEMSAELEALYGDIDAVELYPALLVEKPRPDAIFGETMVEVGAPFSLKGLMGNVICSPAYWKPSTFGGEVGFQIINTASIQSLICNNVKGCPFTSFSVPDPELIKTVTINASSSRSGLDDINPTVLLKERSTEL
Data set [11] deals with Alpha-1A adrenergic receptor (Homo sapiens) (UniProt P35348). The experiment in a line: ALPHA1AH_ANTAG Eurofins SafetyScreen44 (BI). The following applies: filed as antagonist, Compound concentration 10.0 uM.
The target of data set [12] is L-type Ca2+ channel (dihydropyridine site), Voltage-dependent L-type calcium channel subunit alpha-1C (Rattus norvegicus, UniProt P22002). The experiment in a line: CA+/DHPSI/R Eurofins SafetyScreen44 (BI). The following applies: rat brain, probe [3H](+)PN200-110, compound concentration 10 uM, read-out: % Ctrl.
Data set [13] concerns the target D(4) dopamine receptor (Homo sapiens) (UniProt P21917). Conditions: Compound concentration 10.0 uM.
The target in data set [14] is Angiotensin-converting enzyme (Homo sapiens) (UniProt P12821). The experiment in a line: ACE(HU_AMTCH400) Eurofins SafetyScreen44 (BI). Conditions: Compound concentration 10.0 uM.
In data set [15] the target is Ribosomal protein S6 kinase alpha-5 (Homo sapiens) (UniProt O75582). The experiment in a line: RPS6KA5 Invitrogen Lab (UK) kinase screen (BI). Conditions: Compound concentration 1.0 uM.
Data set [16] addresses Serine/threonine-protein kinase Nek1 (Homo sapiens) (UniProt Q96PY6). The experiment in a line: NEK1 Invitrogen Lab (UK) kinase screen (BI). The following applies: Compound concentration 1.0 uM.
Data set [17] deals with B-cell lymphoma 6 protein (Homo sapiens, UniProt P41182). The experiment in a line: BCL6::NCOR LUMIER in cells.
Data set [18] addresses Alpha-2C adrenergic receptor (Homo sapiens) (UniProt P18825). Conditions: Compound concentration 10.0 uM.
Data set [19] has as its target Tyrosine-protein kinase Lck (Homo sapiens) (UniProt P06239). The experiment in a line: LCK_CE Eurofins SafetyScreen44 (BI). The following applies: Compound concentration 10.0 uM.
The target of data set [20] is Vasopressin V1a receptor (Homo sapiens) (UniProt P37288). The experiment in a line: V1A/HUM Eurofins SafetyScreen44 (BI). The following applies: Compound concentration 10.0 uM.
Sequence of Vasopressin V1a receptor (Homo sapiens) (P37288 whole entry, looked up): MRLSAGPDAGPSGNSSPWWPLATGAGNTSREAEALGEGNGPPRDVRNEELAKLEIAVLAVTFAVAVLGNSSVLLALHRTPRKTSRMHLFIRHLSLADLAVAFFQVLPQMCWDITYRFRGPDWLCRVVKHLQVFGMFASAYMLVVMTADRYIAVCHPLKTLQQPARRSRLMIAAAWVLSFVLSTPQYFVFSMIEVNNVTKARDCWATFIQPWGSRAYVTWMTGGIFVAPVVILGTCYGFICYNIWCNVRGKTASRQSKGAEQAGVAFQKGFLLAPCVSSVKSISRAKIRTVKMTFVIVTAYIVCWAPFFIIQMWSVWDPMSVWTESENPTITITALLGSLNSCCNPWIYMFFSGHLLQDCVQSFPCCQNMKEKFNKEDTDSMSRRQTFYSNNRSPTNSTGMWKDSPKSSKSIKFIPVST
For data set [21], the target named is Focal adhesion kinase 1 (Homo sapiens) (UniProt Q05397). The experiment in a line: PTK2 Invitrogen Lab (UK) kinase screen (BI). The following applies: Compound concentration 1.0 uM.
For data set [22], the target named is Sodium-dependent noradrenaline transporter (Homo sapiens) (UniProt P23975). The following applies: Compound concentration 10.0 uM.
Sequence of Sodium-dependent noradrenaline transporter (Homo sapiens) (P23975 whole entry): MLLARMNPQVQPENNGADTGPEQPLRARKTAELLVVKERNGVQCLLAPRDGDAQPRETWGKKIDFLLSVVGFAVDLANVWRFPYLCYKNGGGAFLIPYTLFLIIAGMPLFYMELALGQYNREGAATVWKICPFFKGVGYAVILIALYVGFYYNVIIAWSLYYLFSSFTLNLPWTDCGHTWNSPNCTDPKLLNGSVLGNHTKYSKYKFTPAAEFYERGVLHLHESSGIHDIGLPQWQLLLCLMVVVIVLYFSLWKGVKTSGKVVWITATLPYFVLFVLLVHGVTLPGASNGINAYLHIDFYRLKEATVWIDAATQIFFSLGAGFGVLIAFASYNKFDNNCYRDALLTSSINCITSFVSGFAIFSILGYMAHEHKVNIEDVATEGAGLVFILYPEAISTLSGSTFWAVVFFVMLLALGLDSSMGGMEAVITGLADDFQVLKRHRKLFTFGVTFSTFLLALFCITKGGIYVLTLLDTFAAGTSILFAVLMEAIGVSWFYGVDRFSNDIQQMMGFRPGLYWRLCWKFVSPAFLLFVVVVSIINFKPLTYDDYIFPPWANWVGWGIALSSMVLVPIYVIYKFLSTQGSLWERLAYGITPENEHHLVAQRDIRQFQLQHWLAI
Data set [23] concerns the target Proto-oncogene tyrosine-protein kinase receptor Ret (Homo sapiens) (UniProt P07949). The experiment in a line: RET Invitrogen Lab (UK) kinase screen (BI). Conditions: Compound concentration 1.0 uM.
Data set [24] addresses Muscarinic acetylcholine receptor M4 (Homo sapiens) (UniProt P08173). Conditions: Compound concentration 10.0 uM.
Data set [25] deals with High affinity nerve growth factor receptor (Homo sapiens) (UniProt P04629). The experiment in a line: NTRK1 Invitrogen Lab (UK) kinase screen (BI). Conditions: Compound concentration 1.0 uM.
Data set [26] has as its target Cannabinoid receptor 1 (Homo sapiens) (UniProt P21554). The experiment in a line: CB1/CENTR/H Eurofins SafetyScreen44 (BI). The following applies: Compound concentration 10.0 uM.
The target in data set [27] is cAMP-dependent protein kinase catalytic subunit alpha (Homo sapiens) (UniProt P17612). The experiment in a line: PRKACA Invitrogen Lab (UK) kinase screen (BI). Conditions: Compound concentration 1.0 uM.
Data set [28] has as its target T2, 5-hydroxytryptamine receptor 1A (Homo sapiens). The following applies: Compound concentration 10.0 uM.
Data set [29] concerns the target Ribosomal protein S6 kinase alpha-3 (Homo sapiens) (UniProt P51812). The experiment in a line: RPS6KA3 Invitrogen Lab (UK) kinase screen (BI). Conditions: Compound concentration 1.0 uM.
The target of data set [30] is Glucocorticoid receptor (Homo sapiens) (UniProt P04150). The experiment in a line: GCORTICOID/H Eurofins SafetyScreen44 (BI). The following applies: Compound concentration 10.0 uM.
For data set [31], the target named is Sodium-dependent serotonin transporter (Homo sapiens) (UniProt P31645). The experiment in a line: SLC6A4/H Eurofins SafetyScreen44 (BI). The following applies: filed as antagonist, Compound concentration 10.0 uM.
Sequence of Sodium-dependent serotonin transporter (Homo sapiens) (P31645 whole entry, looked up): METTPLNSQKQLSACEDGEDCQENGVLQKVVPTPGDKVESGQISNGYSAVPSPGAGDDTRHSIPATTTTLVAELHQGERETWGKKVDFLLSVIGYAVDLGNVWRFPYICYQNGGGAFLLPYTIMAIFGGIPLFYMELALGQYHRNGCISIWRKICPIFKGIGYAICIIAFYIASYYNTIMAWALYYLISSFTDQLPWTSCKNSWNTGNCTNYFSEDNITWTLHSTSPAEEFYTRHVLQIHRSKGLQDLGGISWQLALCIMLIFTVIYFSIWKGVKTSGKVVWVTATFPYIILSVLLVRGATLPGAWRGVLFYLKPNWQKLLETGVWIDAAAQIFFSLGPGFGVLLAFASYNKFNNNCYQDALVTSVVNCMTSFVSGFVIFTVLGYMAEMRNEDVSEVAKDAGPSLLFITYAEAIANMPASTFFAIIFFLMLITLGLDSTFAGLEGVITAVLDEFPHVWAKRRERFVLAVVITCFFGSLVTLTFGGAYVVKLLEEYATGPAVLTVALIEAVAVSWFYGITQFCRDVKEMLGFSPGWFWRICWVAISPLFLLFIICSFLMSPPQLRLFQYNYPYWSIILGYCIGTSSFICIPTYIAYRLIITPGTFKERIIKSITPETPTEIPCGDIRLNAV
The target of data set [32] is Sodium-dependent dopamine transporter (Homo sapiens) (UniProt Q01959). The following applies: Compound concentration 10.0 uM.
Sequence of Sodium-dependent dopamine transporter (Homo sapiens) (Q01959 whole entry): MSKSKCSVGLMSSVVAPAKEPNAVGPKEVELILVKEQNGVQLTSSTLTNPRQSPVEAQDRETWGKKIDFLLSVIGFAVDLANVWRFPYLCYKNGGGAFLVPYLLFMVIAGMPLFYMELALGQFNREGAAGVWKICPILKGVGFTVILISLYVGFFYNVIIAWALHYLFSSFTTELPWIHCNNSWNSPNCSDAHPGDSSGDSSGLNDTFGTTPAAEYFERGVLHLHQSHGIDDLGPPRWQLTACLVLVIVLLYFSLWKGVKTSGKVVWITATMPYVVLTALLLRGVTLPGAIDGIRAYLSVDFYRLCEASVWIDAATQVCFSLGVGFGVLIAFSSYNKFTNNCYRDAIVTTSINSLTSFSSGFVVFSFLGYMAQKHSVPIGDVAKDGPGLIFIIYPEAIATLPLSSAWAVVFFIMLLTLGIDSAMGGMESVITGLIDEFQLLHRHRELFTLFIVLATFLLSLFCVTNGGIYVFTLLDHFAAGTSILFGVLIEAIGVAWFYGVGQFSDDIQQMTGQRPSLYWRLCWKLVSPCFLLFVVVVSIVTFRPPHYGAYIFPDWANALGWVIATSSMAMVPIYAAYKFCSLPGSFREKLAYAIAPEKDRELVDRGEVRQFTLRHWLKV

Active and inactive are the calls of the source. No cut-off for these calls is given here.

Sequence of Beta-2 adrenergic receptor (Homo sapiens) (P07550 whole entry, looked up): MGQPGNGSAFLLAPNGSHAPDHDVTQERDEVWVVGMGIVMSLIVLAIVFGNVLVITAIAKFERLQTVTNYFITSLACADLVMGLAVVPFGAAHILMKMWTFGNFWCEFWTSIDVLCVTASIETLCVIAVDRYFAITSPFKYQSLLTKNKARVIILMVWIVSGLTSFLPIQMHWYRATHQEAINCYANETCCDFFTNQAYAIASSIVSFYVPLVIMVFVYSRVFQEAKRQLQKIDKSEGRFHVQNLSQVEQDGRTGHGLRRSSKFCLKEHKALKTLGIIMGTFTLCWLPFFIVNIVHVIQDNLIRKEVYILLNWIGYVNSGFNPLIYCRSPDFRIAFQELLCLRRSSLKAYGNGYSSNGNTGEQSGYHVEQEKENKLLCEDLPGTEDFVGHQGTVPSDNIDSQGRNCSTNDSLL
Sequence of D(4) dopamine receptor (Homo sapiens) (P21917 whole entry): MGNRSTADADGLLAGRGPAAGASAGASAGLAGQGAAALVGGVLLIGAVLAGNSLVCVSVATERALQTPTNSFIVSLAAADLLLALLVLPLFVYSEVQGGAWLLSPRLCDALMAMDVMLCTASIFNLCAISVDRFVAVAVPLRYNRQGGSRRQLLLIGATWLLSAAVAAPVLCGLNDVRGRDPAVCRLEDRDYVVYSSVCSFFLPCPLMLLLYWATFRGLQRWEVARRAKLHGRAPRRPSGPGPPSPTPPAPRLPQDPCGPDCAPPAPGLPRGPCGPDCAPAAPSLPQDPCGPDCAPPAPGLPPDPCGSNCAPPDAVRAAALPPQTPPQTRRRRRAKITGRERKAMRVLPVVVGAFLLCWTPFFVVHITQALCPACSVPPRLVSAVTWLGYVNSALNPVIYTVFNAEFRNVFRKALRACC
Sequence of Alpha-2C adrenergic receptor (Homo sapiens) (P18825 whole entry): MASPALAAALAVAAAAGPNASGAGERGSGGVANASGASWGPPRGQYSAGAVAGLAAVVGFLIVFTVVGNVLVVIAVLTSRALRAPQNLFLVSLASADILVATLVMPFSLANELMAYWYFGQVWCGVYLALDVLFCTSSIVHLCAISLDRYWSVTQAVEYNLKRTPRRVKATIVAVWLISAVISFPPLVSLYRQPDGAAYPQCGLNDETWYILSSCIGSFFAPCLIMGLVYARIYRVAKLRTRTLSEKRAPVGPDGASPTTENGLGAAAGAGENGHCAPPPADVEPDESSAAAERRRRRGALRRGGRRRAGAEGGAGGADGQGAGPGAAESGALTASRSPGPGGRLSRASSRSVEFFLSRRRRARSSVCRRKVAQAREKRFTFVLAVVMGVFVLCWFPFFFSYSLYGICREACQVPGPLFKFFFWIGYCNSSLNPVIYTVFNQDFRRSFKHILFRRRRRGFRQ

For `CNC(=O)COc1cc2cc(Nc3nc(N4C[C@H](C)C[C@H](C)C4)ncc3Cl)ccc2n(C)c1=O`, the residual activity in data set [1] is 92%; in data set [2], 101%; in data set [3], 71%; in [4] it was 110%; in [5], 101%; in data set [6] it was 90%. Besides, the residual activity is 97% in [7]; 88% in data set [10]; 110% in data set [11]; 106% in [14]; 96% in [15]; 101% in [16]. Further, the residual activity in [19] was 114%; in [20] it was 85%; in [21], 106%; in data set [23], 101%; in [25], 83%; in data set [26], 84%. Further, the residual activity in data set [27] was 91%; in data set [29] it was 89%; in data set [30] it was 99%; in data set [31], 104%. Also, the inhibition was -7.81% in [8]; -4.02% in [9]; -9.6% in data set [13]; 6.5% in [18]; 9.75% in [22]; -1.45% in data set [24]. Further, the inhibition in [28] is 27%; in data set [32], 12.6%. The activity at 10 µM in [12] was 99% (not active). Moreover, the IC50 in data set [17] was 43 nM (active).
In the case of `C[C@@H]1C[C@H](C)CN(c2ncc(Cl)c(Nc3ccc4c(c3)cc(OC(C)(C)C(=O)O)c(=O)n4C)n2)C1`, the residual activity in data set [2] is 95%; in [4], 121%; in [5], 89%; in data set [6] it was 97%; in [10], 75%; in data set [11], 99%. In addition, the residual activity was 111% in data set [14]; 87% in data set [19]; 97% in data set [20]; 97% in [30]; 91% in [31]. Moreover, the activity at 10 µM in [12] was 104% (not active).
